Assay results reported in patent US20260199323A1, “LIGAND COMPOUNDS FOR E3 UBIQUITIN LIGASE, PROTEIN DEGRADERS DEVELOPED ON BASIS OF LIGAND COMPOUNDS, AND USES THEREOF” (GLUETACS THERAPEUTICS (SHANGHAI) CO., LTD., priority 2021, published 2026).
Read-outs that look alike come from different tables or passages of the source. Values belong to the molecule of their own block, whether it stands above or below them.

Key:
Mino = test: CCK-8 tumor cell proliferation, Mino; format: cell-based, Human; details: for IC50: Homo sapiens, Table 18, FAK inhibitor based, Mino, read-out: IC50 inhibiting proliferation of tumor cells, Mino
Protocol: (§1) The tumor cells used herein were cultured in a cell culture medium listed in table 4 at 37° C. in an incubator with 5% CO2. Prior to experimentation, all cells used were correctly identified by STR profiling, and tested negative for mycoplasma through routine screenings.
(§2) IC50 values of the compounds of the present disclosure (including the compounds in Tables 1 and 3, and compounds of examples) were measured using the Meilun Cell Counting Kit-8 kit from Dalian Meilun Biotech Co., Ltd. Assay details are as follows: tumor cells were seeded in a 96-well plate at a density listed in Table 5. After 24 h, 100 μL of the inoculated cells were treated with 0.5 μL of the compounds of the present disclosure (including the compounds in Tables 1 and 3, and compounds of examples) at 10 different successively decreasing concentrations (starting at the highest concentration of 10 μM; 5-fold serial dilutions). After the cells were treated with the compounds of the present disclosure for a period of time, the cell viability detection reagent was added to the culture medium for cell viability assessment according to the instructions provided with the CCK-8 kit. […] The growth inhibition of the compounds of the present disclosure on cells was plotted by Prism Graphpad software, and the IC50 values of the compounds of the present disclosure were calculated therefrom.

SW620 = test: CCK-8 tumor cell proliferation, SW620; format: cell-based, Human; details: for IC50: Homo sapiens, SW-620
Protocol: as §1, §2

PC-9 = test: CCK-8 tumor cell proliferation, PC-9; format: cell-based, Human; details: for IC50: Homo sapiens, PC-9, read-out: IC50 inhibiting proliferation of tumor cells, PC-9; for IC50 for inhibiting the proliferation of tumor cells, PC-9: Table 11, designed based on EGFR inhibitors, 96 h
Protocol: The tumor cells used herein were cultured in a cell culture medium listed in table 4 at 37° C. in an incubator with 5% CO2.
as §2, with “After” for “IC50 values of the compounds of the present disclosure (including the compounds in Tables 1 and 3, and compounds of examples) were measured using the Meilun Cell Counting Kit-8 kit from Dalian Meilun Biotech Co., Ltd. Assay details are as follows: tumor cells were seeded in a 96-well plate at a density listed in Table 5. After”

MDA-MB-231 = test: CCK-8 tumor cell proliferation, MDA-MB-231; format: cell-based, Human; set-up: IC50 for inhibiting the proliferation of tumor cells, MDA-MB-231: scale not given here; details: for IC50: Homo sapiens, MDA-MB-231, read-out: IC50 inhibiting proliferation of tumor cells, MDA-MB-231
Protocol: as §1, §2

SR = test: CCK-8 tumor cell proliferation, SR; format: cell-based, Human; details: for IC50: Homo sapiens, SR, read-out: IC50 inhibiting proliferation of tumor cells, SR
Protocol: as §1, §2

CCRF-CEM = test: CCK-8 tumor cell proliferation, CCRF-CEM; format: cell-based, Human; set-up: IC50 for inhibiting the proliferation of tumor cells, CCRF-CEM: scale not given here; details: 96 h
Protocol: as §1, §2

MM.1S = test: CCK-8 tumor cell proliferation, MM.1S; format: cell-based; details: Table 7, designed based on BTK inhibitors; 72 h
Protocol: as §1, §2

CAL-62 = test: CCK-8 tumor cell proliferation, CAL-62; format: cell-based, Human; details: Homo sapiens; Table 18, FAK inhibitor based; CAL-62; read-out: IC50 inhibiting proliferation of tumor cells, CAL-62
Protocol: as §1, §2

[1] = Table 18, FAK inhibitor based, SW620, read-out: IC50 inhibiting proliferation of tumor cells, SW620

IC50 for inhibiting the proliferation of tumor cells, CCRF-CEM (CCRF-CEM; Table 11, designed based on EGFR inhibitors): A+ | IC50 for inhibiting the proliferation of tumor cells, PC-9 (PC-9): A+
Compound: CN(Cc1ccc2c(c1)CN(C1CCC(=O)NC1=O)C2=O)C1CCN(c2ccc(Nc3ncc4nc(Nc5ccccc5)n(C5CCCC5)c4n3)cc2)CC1 (stereo not shown) [GT-03685, 3-(5-(((1-(4-((9-cyclopentyl-8-(phenylamino)-9H-purin-2-yl)amino)phenyl)piperidin-4-yl)(methyl)amino)methyl)-1-oxoisoindolin-2-yl)piperidine-2,6-dione]

IC50 (MDA-MB-231; Table 18, FAK inhibitor based): < 50 nM | IC50 (Mino): 100 to 500 nM | IC50 (SW620; [1]): < 50 nM | IC50 (PC-9; Table 18, FAK inhibitor based): 1000 to 5000 nM
Compound: CNC(=O)c1ccccc1Nc1cc(Nc2ccc(N3CCN(Cc4ccc5c(c4F)CN(C4CCC(=O)NC4=O)C5=O)CC3)cc2OC)ncc1C(F)(F)F (stereo not shown) [GT-03712, 2-((2-((4-(4-((2-(2,6-dioxopiperidin-3-yl)-4-fluoro-1-oxoisoindolin-5-yl)methyl)piperazin-1-yl)-2-methoxyphenyl)amino)-5-(trifluoromethyl)pyridin-4-yl)amino)-N-methylbenzamide]

IC50 for inhibiting the proliferation of tumor cells, CCRF-CEM (CCRF-CEM; Table 14, designed based on CDK4/6 inhibitors): A+ | IC50 for inhibiting the proliferation of tumor cells, SR (SR; Table 14, designed based on CDK4/6 inhibitors, 72 h): A+ | IC50 for inhibiting the proliferation of tumor cells, SW620 (SW620; Table 14, designed based on CDK4/6 inhibitors, 96 h): A+
Compound: Cc1nc2c(F)cc(-c3nc(Nc4ccc(N5CCC(N6CCN(Cc7ccc8c(c7)CN(C7CCC(=O)NC7=O)C8=O)CC6)CC5)cn4)ncc3F)cc2n1C(C)C (stereo not shown) [GT-03719, 3-(5-((4-(1-(6-((5-fluoro-4-(4-fluoro-1-isopropyl-2-methyl-1H-benzo[d]imidazol-6-yl)pyrimidin-2-yl)amino)pyridin-3-yl)piperidin-4-yl)piperazin-1-yl)methyl)-1-oxoisoindolin-2-yl)piperidine-2,6-dione]

IC50 (MDA-MB-231; Table 18, FAK inhibitor based): < 50 nM | IC50 (SR; Table 18, FAK inhibitor based): < 50 nM | IC50 (Mino): 1000 to 5000 nM | IC50 (SW620; [1]): 100 to 500 nM | IC50 (PC-9; Table 18, FAK inhibitor based): 1000 to 5000 nM | IC50 (CAL-62): 50 to 100 nM
Compound: CNC(=O)c1ccccc1Nc1cc(Nc2ccc(N3CCC(N(C)Cc4ccc5c(c4F)CN(C4CCC(=O)NC4=O)C5=O)CC3)cc2OC)ncc1C(F)(F)F (stereo not shown) [GT-03728, 2-((2-((4-(4-(((2-(2,6-dioxopiperidin-3-yl)-4-fluoro-1-oxoisoindolin-5-yl)methyl)(methyl)amino)piperidin-1-yl)-2-methoxyphenyl)amino)-5-(trifluoromethyl)pyridin-4-yl)amino)-N-methylbenzamide]

IC50 (MDA-MB-231; Table 18, FAK inhibitor based): 1000 to 5000 nM | IC50 (SR; Table 18, FAK inhibitor based): 50 to 100 nM | IC50 (CAL-62): 500 to 1000 nM
Compound: CNC(=O)c1ccccc1Nc1cc(Nc2ccc(N3CCC(N(C)Cc4cccc5c4CN(C4CCC(=O)NC4=O)C5=O)CC3)cc2OC)ncc1C(F)(F)F (stereo not shown) [GT-03731, 2-((2-((4-(4-(((2-(2,6-dioxopiperidin-3-yl)-1-oxoisoindolin-4-yl)methyl)(methyl)amino)piperidin-1-yl)-2-methoxyphenyl)amino)-5-(trifluoromethyl)pyridin-4-yl)amino)-N-methylbenzamide]

IC50 (SR; Table 18, FAK inhibitor based): 100 to 500 nM | IC50 (SW620; [1]): 1000 to 5000 nM | IC50 (PC-9; Table 18, FAK inhibitor based): 50 to 100 nM
Compound: CNC(=O)c1ccccc1Nc1cc(Nc2ccc(N3CCC(N(C)Cc4ccc5c(c4)C(=O)N(C4CCC(=O)NC4=O)C5=O)CC3)cc2OC)ncc1C(F)(F)F (stereo not shown) [GT-03732, 2-((2-((4-(4-(((2-(2,6-dioxopiperidin-3-yl)-1,3-dioxoisoindolin-5-yl)methyl)(methyl)amino)piperidin-1-yl)-2-methoxyphenyl)amino)-5-(trifluoromethyl)pyridin-4-yl)amino)-N-methylbenzamide]

IC50 for inhibiting the proliferation of tumor cells, PC-9 (PC-9): A+
Compound: O=C1CCC(N2Cc3cc(CN4CCN(c5ccc(Nc6ncc7nc(Nc8ccccc8)n(C8CCCC8)c7n6)cc5)CC4)c(F)cc3C2=O)C(=O)N1 (stereo not shown) [GT-03736, 3-(5-((4-(4-((9-cyclopentyl-8-(phenylamino)-9H-purin-2-yl)amino)phenyl)piperazin-1-yl)methyl)-6-fluoro-1-oxoisoindolin-2-yl)piperidine-2,6-dione]

IC50 for inhibiting the proliferation of tumor cells, PC-9 (PC-9): A+
Compound: O=C1CCC(N2Cc3cc(CN4CCN(C5CCN(c6ccc(Nc7ncc8nc(Nc9ccccc9)n(C9CCCC9)c8n7)cc6)CC5)CC4)ccc3C2=O)C(=O)N1 (stereo not shown) [GT-03808, 3-(5-((4-(1-(4-((9-cyclopentyl-8-(phenylamino)-9H-purin-2-yl)amino)phenyl)piperidin-4-yl)piperazin-1-yl)methyl)-1-oxoisoindolin-2-yl)piperidine-2,6-dione]

IC50 (SW620; Table 14, designed based on CDK4/6 inhibitors, 96 h, read-out: IC50 for inhibiting the proliferation of tumor cells, SW620): > 10000 nM
Compound: CN(C)C(=O)c1cc2cnc(Nc3ccc(N4CCNCC4)cn3)nc2n1C1CCCC1 [Ribociclib, reference compound]

More lines, now with the values behind:

Compound: CNC(=O)c1ccc(Nc2ncc(C(F)(F)F)c(NCc3nccnc3N(C)S(C)(=O)=O)n2)cc1 [Defactinib, reference compound]
IC50 (Mino): 500 to 1000 nM | IC50 (SW620; [1]): 1000 to 5000 nM | IC50 (PC-9; Table 18, FAK inhibitor based): 1000 to 5000 nM

Compound: Cc1nc(Nc2ncc(C(=O)Nc3c(C)cccc3Cl)s2)cc(N2CCC(N3CCN(Cc4ccc5c(c4)CN(C4CCC(=O)NC4=O)C5=O)CC3)CC2)n1 (stereo not shown) [GT-03476, N-(2-chloro-6-methylphenyl)-2-((6-(4-(4-((2-(2,6-dioxopiperidin-3-yl)-1-oxoisoindolin-5-yl)methyl)piperazin-1-yl)piperidin-1-yl)-2-methylpyrimidin-4-yl)amino)thiazole-5-carboxamide]
IC50 for inhibiting the proliferation of tumor cells, Mino (Mino; Table 13, designed based on BCR-ABL inhibitors, 72 h): A+

Compound: Cc1cc(Nc2ncc(Cl)c(Nc3ccccc3S(=O)(=O)C(C)C)n2)c(OC(C)C)cc1N1CCN(Cc2ccc3c(c2)CN(C2CCC(=O)NC2=O)C3=O)CC1 (stereo not shown) [GT-03529, 3-(5-((4-(4-((5-chloro-4-((2-(isopropylsulfonyl)phenyl)amino)pyrimidin-2-yl)amino)-5-isopropoxy-2-methylphenyl)piperazin-1-yl)methyl)-1-oxoisoindolin-2-yl)piperidine-2,6-dione]
IC50 (MDA-MB-231; Table 15, ALK inhibitor based): 100 to 500 nM | IC50 (SR; Table 15, ALK inhibitor based): < 50 nM | IC50 (PC-9; Table 15, ALK inhibitor based): 100 to 500 nM

Compound: Cc1cc(Nc2ncc(Cl)c(Nc3ccccc3S(=O)(=O)C(C)C)n2)c(OC(C)C)cc1N1CCC(N2CCN(Cc3ccc4c(c3)CN(C3CCC(=O)NC3=O)C4=O)CC2)CC1 (stereo not shown) [GT-03531, 3-(5-((4-(1-(4-((5-chloro-4-((2-(isopropylsulfonyl)phenyl)amino)pyrimidin-2-yl)amino)-5-isopropoxy-2-methylphenyl)piperidin-4-yl)piperazin-1-yl)methyl)-1-oxoisoindolin-2-yl)piperidine-2,6-dione]
IC50 (MDA-MB-231; Table 15, ALK inhibitor based): 100 to 500 nM | IC50 (SR; Table 15, ALK inhibitor based): < 50 nM | IC50 (PC-9; Table 15, ALK inhibitor based): 1000 to 5000 nM

Compound: Nc1ncnc2c1c(-c1ccc(Oc3ccccc3)cc1)nn2C1CCN(Cc2cc3c(cc2F)C(=O)N(C2CCC(=O)NC2=O)C3)CC1 (stereo not shown) [GT-03605, 3-(5-((4-(4-amino-3-(4-phenoxyphenyl)-1H-pyrazolo[3,4-d]pyrimidin-1-yl)piperidin-1-yl)methyl)-6-fluoro-1-oxoisoindolin-2-yl)piperidine-2,6-dione]
IC50 for inhibiting the proliferation of tumor cells, CCRF-CEM (CCRF-CEM; Table 7, designed based on BTK inhibitors): A+ | IC50 for inhibiting the proliferation of tumor cells, MDA-MB-231 (MDA-MB-231; Table 7, designed based on BTK inhibitors, 96 h): A+ | IC50 for inhibiting the proliferation of tumor cells, MM.1S (MM.1S): A+

Compound: CN(c1nccnc1CNc1nc(Nc2ccc(N3CCN(Cc4ccc5c(c4)CN(C4CCC(=O)NC4=O)C5=O)CC3)cc2)ncc1C(F)(F)F)S(C)(=O)=O (stereo not shown) [GT-03672, N-(3-(((2-((4-(4-((2-(2,6-dioxopiperidin-3-yl)-1-oxoisoindolin-5-yl)methyl)piperazin-1-yl)phenyl)amino)-5-(trifluoromethyl)pyrimidin-4-yl)amino)methyl)pyrazin-2-yl)-N-methylmethanesulfonamide]
IC50 (MDA-MB-231; Table 18, FAK inhibitor based): 500 to 1000 nM | IC50 (SR; Table 18, FAK inhibitor based): 500 to 1000 nM | IC50 (Mino): 500 to 1000 nM | IC50 (SW620; [1]): 1000 to 5000 nM | IC50 (PC-9; Table 18, FAK inhibitor based): 1000 to 5000 nM | IC50 (CAL-62): 500 to 1000 nM
